# In the NIST ThermoML archive (doi:10.1021/je400544h):
# Numbers after ± are expanded uncertainties.
# Details: Liquid, Ebulliometric method (Recirculating still)
smiles,measurement,setting,value
O=S(=O)(Cl)Cl [sulfuryl chloride],vapor or sublimation pressure,342.6 K,101.3 ± 2 kPa
CCO [ethanol],vapor or sublimation pressure,351.45 K,101.3 ± 1.8 kPa
CC(C)=O [acetone],vapor or sublimation pressure,329.37 K,101.3 ± 1.8 kPa
"FC(F)(F)C(Cl)(Cl)Cl [1,1,1-trichloro-2,2,2-trifluoroethane]",vapor or sublimation pressure,319.15 K,101.3 ± 2 kPa
